Patent US7960377B2 (priority 2008, dated 2011)

Tests used:
[1] = target: T1, rat CB2 receptor (Rattus norvegicus, UniProt Q9QZN9); assay: cell-based; format: cell-based
T1 sequence (Q9QZN9 1-360): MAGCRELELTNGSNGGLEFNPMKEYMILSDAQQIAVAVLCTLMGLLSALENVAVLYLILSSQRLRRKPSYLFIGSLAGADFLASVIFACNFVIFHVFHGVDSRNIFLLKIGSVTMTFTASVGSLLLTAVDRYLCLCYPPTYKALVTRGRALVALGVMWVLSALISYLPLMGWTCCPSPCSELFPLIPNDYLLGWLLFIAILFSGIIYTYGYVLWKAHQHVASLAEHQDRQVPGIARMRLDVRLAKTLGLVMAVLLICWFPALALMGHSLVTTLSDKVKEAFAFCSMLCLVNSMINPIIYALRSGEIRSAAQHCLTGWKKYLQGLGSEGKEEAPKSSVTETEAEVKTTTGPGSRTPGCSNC

[2] = target: human CB1 receptor (Homo sapiens, UniProt P21554); assay: cell-based
Sequence of human CB1 receptor (P21554 whole entry): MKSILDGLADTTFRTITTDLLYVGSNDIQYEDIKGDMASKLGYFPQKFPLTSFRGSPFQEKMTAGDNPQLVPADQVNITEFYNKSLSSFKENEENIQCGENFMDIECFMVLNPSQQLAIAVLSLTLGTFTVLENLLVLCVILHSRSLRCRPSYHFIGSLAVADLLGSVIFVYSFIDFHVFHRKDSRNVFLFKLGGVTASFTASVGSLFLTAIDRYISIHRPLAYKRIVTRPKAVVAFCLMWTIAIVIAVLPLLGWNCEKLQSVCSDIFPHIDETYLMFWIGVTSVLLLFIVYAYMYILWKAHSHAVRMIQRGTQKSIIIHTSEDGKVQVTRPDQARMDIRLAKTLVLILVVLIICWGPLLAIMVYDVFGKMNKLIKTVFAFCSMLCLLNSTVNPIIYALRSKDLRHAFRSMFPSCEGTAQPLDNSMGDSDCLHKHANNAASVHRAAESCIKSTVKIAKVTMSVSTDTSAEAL

Row | Compound | EC50 [1] | other results
1 | CC1(C)COCN1C(=O)c1cnc2c(c1)N(S(=O)(=O)c1ccc(Cl)c(Cl)c1)CCO2 [Example 124, (1-(3,4-dichlorophenyl-sulfonyl)-2,3-dihydro-1H-pyrido[2,3-b][1,4]oxazin-7-yl)(4,4-dimethyl-oxazolidin-3-yl)methanone] | ≤ 30 nM | 
2 | O=C(N[C@H]1CCC[C@@H]1O)c1cnc2c(c1)N(S(=O)(=O)c1ccc(Cl)cc1F)CCO2 [Example 111, 1-(4-chloro-2-fluorophenylsulfonyl)-N-((1S,2S)-2-hydroxycyclopentyl)-2,3-dihydro-1H-pyrido[2,3-b][1,4]oxazine-7-carboxamide] | ≤ 30 nM | 
3 | CC(C)(C)NC(=O)c1cnc2c(c1)N(S(=O)(=O)N1Cc3ccccc3C1)CCO2 [Example 183, N-tert-butyl-1-(isoindolin-2-ylsulfonyl)-2,3-dihydro-1H-pyrido[2,3-b][1,4]oxazine-7-carboxamide] | ≤ 30 nM | 
4 | CCN(C(=O)c1cnc2c(c1)N(S(=O)(=O)c1ccc(C(F)(F)F)cc1)CCO2)C(C)(C)C [Example 42, N-tert-butyl-N-ethyl-1-(4-(trifluoromethyl)phenylsulf-onyl)-2,3-dihydro-1H-pyrido[2,3-b][1,4]oxazine-7-carboxamide] | ≤ 30 nM | 
5 | CC(C)(C)NC(=O)c1cnc2c(c1)N(S(=O)(=O)N1CCCCC1)CCO2 [Example 2, N-tert-butyl-1-(piperidin-1-ylsulfonyl)-2,3-dihydro-1H-pyrido[2,3-b][1,4]oxazine-7-carboxamide] | ≤ 30 nM | 
6 | CC(C)(CO)CNC(=O)c1cnc2c(c1)N(S(=O)(=O)c1ccc(Cl)c(Cl)c1)CCO2 [Example 131, 1-(3,4-dichlorophenyl-sulfonyl)-N-(3-hydroxy-2,2-dimethylpropyl)-2,3-dihydro-1H-pyrido[2,3-b][1,4]oxazine-7-carboxamide] | ≤ 30 nM | 
7 | CC1CCN(S(=O)(=O)N2CCOc3ncc(C(=O)NCC(C)(C)CO)cc32)CC1 [Example 173, N-(3-hydroxy-2,2-dimethylpropyl)-1-(4-methylpiperidin-1-ylsulfonyl)-2,3-dihydro-1H-pyrido[2,3-b][1,4] oxazine-7-carboxamide] | ≤ 30 nM | 
8 | CC(C)(CO)NC(=O)c1cnc2c(c1)N(S(=O)(=O)N1CCC(F)(F)CC1)CCO2 [Example 157, 1-(4,4-difluoropiperidin-1-ylsulfonyl)-N-(1-hydroxy-2-methylpropan-2-yl)-2,3-dihydro-1H-pyrido[2,3-b][1,4]oxazine-7-carboxamide] | ≤ 30 nM | 
9 | CC(C)(CO)NC(=O)c1cnc2c(c1)N(S(=O)(=O)N1CCC(F)CC1)CCO2 [Example 168, 1-(4-fluoropiperidin-1-ylsulfonyl)-N-(1-hydroxy-2-methylpropan-2-yl)-2,3-dihydro-1H-pyrido[2,3-b][1,4]oxazine-7-carboxamide] | ≤ 30 nM | 
10 | O=C(NC1(CO)CCCC1)c1cnc2c(c1)N(S(=O)(=O)c1ccc(C(F)(F)F)cc1)CCO2 [Example 67, N-(1-(hydroxymethyl)-cyclopentyl)-1-(4-(trifluoromethyl)phenylsulf-onyl)-2,3-dihydro-1H-pyrido[2,3-b][1,4]oxazine-7-carboxamide] | ≤ 30 nM | 
11 | CC(C)(CO)NC(=O)c1cnc2c(c1)N(S(=O)(=O)c1ccc(C(F)(F)F)cc1)CCO2 [Example 39, N-(1-hydroxy-2-methyl-propan-2-yl)-1-(4-(trifluoromethyl)phenylsulf-onyl)-2,3-dihydro-1H-pyrido[2,3-b][1,4]oxazine-7-carboxamide] | ≤ 30 nM | 
12 | CC(C)CNC(=O)c1cnc2c(c1)N(S(=O)(=O)c1ccc(F)cc1)CCO2 [Example 8, 1-(4-fluorophenyl-sulfonyl)-N-isobutyl-2,3-dihydro-1H-pyrido[2,3-b][1,4]oxazine-7-carboxamide] | ≤ 30 nM | 
13 | CC(C)(CO)NC(=O)c1cnc2c(c1)N(S(=O)(=O)N1CCCC1)CCO2 [Example 149, N-(1-hydroxy-2-methylpropan-2-yl)-1-(pyrrolidin-1-ylsulfonyl)-2,3-dihydro-1H-pyrido[2,3-b][1,4]oxazine-7-carboxamide] | ≤ 30 nM | 
14 | CC(C)(C)NC(=O)c1noc(-c2cnc3c(c2)N(S(=O)(=O)c2ccc(F)cc2)CCO3)n1 [Example 214, N-tert-butyl-5-(1-(4-fluoro-phenylsulfonyl)-2,3-dihydro-1H-pyrido[2,3-b][1,4]oxazin-7-yl)-1,2,4-oxadiazole-3-carboxamide] |  | inverse agonist mark, rat CB2 receptor ([1]; asterisk at the compound number): 181, 188, 189, 190, 195, 200, 201, 202, 204, 211*, 214*, 220, 221,
15 | O=S(=O)(c1ccc(C(F)(F)F)cc1)N1CCOc2ncc(-c3ncc(-c4ccccc4)o3)cc21 [Example 227, 7-(5-phenyloxazol-2-yl)-1-(4-(trifluoromethyl)phenyl-sulfonyl)-2,3-dihydro-1H-pyrido[2,3-b][1,4]oxazine] | ≤ 30 nM | 
16 | CC(C)(C)NC(=O)c1cnc2c(c1)N(S(=O)(=O)N1CCC(F)(F)C1)CCO2 [Example 163, N-tert-butyl-1-(3,3-difluoropyrrolidin-1-ylsulfonyl)-2,3-dihydro-1H-pyrido[2,3-b][1,4]oxazine-7-carboxamide] | ≤ 30 nM | 
17 | CC(C)(C)NC(=O)c1cnc2c(c1)N(S(=O)(=O)N1CCC(C(F)(F)F)CC1)CCO2 [Example 150, N-tert-butyl-1-(4-(trifluoromethyl)piperidin-1-ylsulfonyl)-2,3-dihydro-1H-pyrido[2,3-b][1,4]oxazine-7-carboxamide] | ≤ 30 nM | 
18 | CN(C)S(=O)(=O)N1CCOc2ncc(C(=O)NC(C)(C)CO)cc21 [Example 144, 1-(N,N-dimethyl-sulfamoyl)-N-(1-hydroxy-2-methylpropan-2-yl)-2,3-dihydro-1H-pyrido[2,3-b][1,4]oxazine-7-carboxamide] |  | EC50 [2]: > 30 µM
19 | CNCC(C)(C)COC(=O)c1cnc2c(c1)N(S(=O)(=O)c1ccc(Cl)c(Cl)c1)CCO2 [Example 204, 2,2-dimethyl-3-(methylamino)propyl 1-(3,4-dichlorophenylsulfonyl)-2,3-dihydro-1H-pyrido[2,3-b][1,4]oxazine-7-carboxylate] |  | EC50 [2]: > 30 µM
20 | CC(C)(C)N(CCO)C(=O)c1cnc2c(c1)N(S(=O)(=O)c1ccc(C(F)(F)F)cc1)CCO2 [Example 44, N-tert-butyl-N-(2-hydroxyethyl)-1-(4-(trifluoromethyl)phenylsulf-onyl)-2,3-dihydro-1H-pyrido[2,3-b][1,4]oxazine-7-carboxamide] |  | EC50 [2]: > 30 µM
21 | CN(C)S(=O)(=O)N1CCOc2ncc(C(=O)NC(C)(C)C)cc21 [Example 145, N-tert-butyl-1-(N,N-dimethylsulfamoyl)-2,3-dihydro-1H-pyrido[2,3-b][1,4]oxazine-7-carboxamide] |  | EC50 [2]: > 30 µM
22 | COC1CN(C(=O)c2cnc3c(c2)N(S(=O)(=O)c2ccc(Cl)c(Cl)c2)CCO3)C1 [Example 129, (1-(3,4-dichlorophenyl-sulfonyl)-2,3-dihydro-1H-pyrido[2,3-b][1,4]oxazin-7-yl)(3-methoxyazetidin-1-yl)methanone] |  | EC50 [2]: > 30 µM
23 | CC(C)(C)NC(=O)c1cnc2c(c1)N(S(=O)(=O)c1ccc(F)cc1Cl)CCO2 [Example 57, N-tert-butyl-1-(2-chloro-4-fluorophenylsulfonyl)-2,3-dihydro-1H-pyrido[2,3-b][1,4]oxazine-7-carboxamide] |  | EC50 [2]: > 30 µM
24 | CC(C)(C)NC(=O)c1cnc2c(c1)N(Cc1ccccc1)C(=O)CO2 [Example 220, 1-benzyl-N-tert-butyl-2-oxo-2,3-dihydro-1H-pyrido[2,3-b] [1,4]oxazine-7-carboxamide] |  | EC50 [2]: > 30 µM
